Data: publication PMC4300089, “Structure-Guided Design of Selective Epac1 and Epac2 Agonists” (PLoS Biology, 2015)

How the values were obtained:
Type in all cases: biochemical
Epac1 = molecular target: T1, Epac1 (Homo sapiens, UniProt O95398); test: Epac activation assay, Epac1
T1 construct: made in house
T1 sequence (O95398 150-881 isoform O95398-3): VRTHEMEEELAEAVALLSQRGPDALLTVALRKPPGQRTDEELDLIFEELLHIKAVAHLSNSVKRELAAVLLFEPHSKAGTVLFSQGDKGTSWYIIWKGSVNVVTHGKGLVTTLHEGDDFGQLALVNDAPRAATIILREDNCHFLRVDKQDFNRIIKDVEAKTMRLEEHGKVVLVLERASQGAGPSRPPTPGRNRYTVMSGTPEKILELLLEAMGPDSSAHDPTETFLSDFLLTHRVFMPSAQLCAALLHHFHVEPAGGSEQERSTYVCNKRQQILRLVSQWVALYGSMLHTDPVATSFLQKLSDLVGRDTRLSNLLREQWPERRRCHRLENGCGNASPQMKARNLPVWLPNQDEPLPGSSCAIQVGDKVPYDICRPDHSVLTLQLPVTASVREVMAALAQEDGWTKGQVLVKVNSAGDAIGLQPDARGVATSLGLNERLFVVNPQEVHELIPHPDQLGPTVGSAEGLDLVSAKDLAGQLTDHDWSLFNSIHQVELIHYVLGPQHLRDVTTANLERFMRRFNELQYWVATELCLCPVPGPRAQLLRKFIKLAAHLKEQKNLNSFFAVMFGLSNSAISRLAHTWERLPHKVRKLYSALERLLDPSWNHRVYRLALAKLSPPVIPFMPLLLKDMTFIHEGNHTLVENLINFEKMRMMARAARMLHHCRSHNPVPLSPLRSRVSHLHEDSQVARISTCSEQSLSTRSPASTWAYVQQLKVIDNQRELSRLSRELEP

PKA-Iα = molecular target: T2, PKA-Iα (Homo sapiens, UniProt P10644); test: PKA activity assay (coupled spectrophotometric, Kemptide), PKA-Iα; conditions: PKAIα
T2 construct: made in house
T2 sequence (P10644 whole entry): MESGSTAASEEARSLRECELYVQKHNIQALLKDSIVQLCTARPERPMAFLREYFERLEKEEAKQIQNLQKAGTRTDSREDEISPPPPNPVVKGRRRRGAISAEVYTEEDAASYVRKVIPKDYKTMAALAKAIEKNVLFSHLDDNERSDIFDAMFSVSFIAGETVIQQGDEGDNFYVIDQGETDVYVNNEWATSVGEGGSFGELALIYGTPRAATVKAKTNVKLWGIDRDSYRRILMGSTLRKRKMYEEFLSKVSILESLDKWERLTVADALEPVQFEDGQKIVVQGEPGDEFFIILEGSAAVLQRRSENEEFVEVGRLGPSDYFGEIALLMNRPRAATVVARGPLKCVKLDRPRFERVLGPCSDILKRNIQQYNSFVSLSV
Method: (§1) The recombinant human PKA catalytic subunit (Cα1) and the four human PKA regulatory subunits (RIα, RIβ, RIIα, RIIβ) were expressed, purified, and characterized as described. […] PKA holoenzymes were formed by mixing the R- and C-subunit at a molar ratio of 1.2:1 and extensive dialysis against 20 mM MOPS (pH 7.0), 150 mM NaCl, 2.5 mM β-mercaptoethanol, supplemented with 1 mM ATP and 10 mM MgCl2 for PKA-I at 4°C overnight. PKA holoenzymes were used at about 20 nM for the activation assay. The apparent activation constants (Kact) were determined by fitting the concentration-dependent activity to a sigmoid dose-response model.

PKA-Iβ = molecular target: T3, PKA-Iβ (Homo sapiens, UniProt P31321); test: PKA activity assay, PKA-Iβ; conditions: PKAIβ
T3 construct: made in house
T3 sequence (P31321 whole entry): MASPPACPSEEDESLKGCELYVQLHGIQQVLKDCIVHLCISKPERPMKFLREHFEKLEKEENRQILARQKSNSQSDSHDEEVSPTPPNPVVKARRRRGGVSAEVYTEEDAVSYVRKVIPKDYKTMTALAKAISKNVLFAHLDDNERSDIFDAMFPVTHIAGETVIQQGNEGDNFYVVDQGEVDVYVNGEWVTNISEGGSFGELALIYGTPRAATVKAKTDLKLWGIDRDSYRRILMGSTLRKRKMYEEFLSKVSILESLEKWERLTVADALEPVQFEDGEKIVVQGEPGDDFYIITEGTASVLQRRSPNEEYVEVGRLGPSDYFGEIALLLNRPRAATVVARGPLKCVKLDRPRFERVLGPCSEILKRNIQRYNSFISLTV
Method: as §1

PKA-IIα = molecular target: T4, PKA-IIα (Homo sapiens, UniProt P13861); test: PKA activity assay, PKA-IIα; conditions: for A (PKA activity): PKAIIα
T4 construct: made in house
T4 sequence (P13861 whole entry): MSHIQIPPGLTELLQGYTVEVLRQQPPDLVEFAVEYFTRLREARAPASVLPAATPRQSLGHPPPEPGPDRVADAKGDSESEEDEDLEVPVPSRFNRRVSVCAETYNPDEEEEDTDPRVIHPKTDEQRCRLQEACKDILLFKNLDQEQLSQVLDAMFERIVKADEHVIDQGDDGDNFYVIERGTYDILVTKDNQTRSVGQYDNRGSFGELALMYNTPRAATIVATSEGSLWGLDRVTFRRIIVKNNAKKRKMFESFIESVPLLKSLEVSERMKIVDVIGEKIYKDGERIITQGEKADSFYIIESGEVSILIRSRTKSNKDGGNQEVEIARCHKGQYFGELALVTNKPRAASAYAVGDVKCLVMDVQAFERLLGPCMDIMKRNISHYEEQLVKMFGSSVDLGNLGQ
Method: as §1

PKA-IIβ = molecular target: T5, PKA-IIβ (Homo sapiens, UniProt P31323); test: PKA activity assay, PKA-IIβ; conditions: PKAIIβ
T5 construct: made in house
T5 sequence (P31323 whole entry): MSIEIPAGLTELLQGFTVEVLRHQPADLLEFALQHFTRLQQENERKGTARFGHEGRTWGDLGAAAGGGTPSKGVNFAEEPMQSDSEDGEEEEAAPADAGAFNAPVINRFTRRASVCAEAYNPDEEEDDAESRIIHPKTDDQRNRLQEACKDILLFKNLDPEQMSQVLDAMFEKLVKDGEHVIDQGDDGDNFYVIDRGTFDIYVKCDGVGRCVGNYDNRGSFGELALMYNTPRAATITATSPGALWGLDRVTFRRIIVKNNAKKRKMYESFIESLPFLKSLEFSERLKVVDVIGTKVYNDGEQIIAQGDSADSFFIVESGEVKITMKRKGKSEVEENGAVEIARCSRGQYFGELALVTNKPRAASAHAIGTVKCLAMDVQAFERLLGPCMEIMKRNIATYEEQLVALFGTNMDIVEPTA
Method: as §1

Cc1ccc(CSc2nc3c(N)ncnc3n2[C@@H]2O[C@@H]3CO[P@](O)(=S)O[C@H]3[C@H]2O)cc1 [S-230, Sp-8-pMeBnT-cAMPS]
kobs (Epac1; 0.3 μM compound): 1e-05 s⁻¹ | kobs (Epac1; 0.5 μM compound): 1e-05 s⁻¹ | kobs (Epac1; 0.8 μM compound): 1.1e-05 s⁻¹ | kobs (Epac1; 1 μM compound): 1.4e-05 s⁻¹ | kobs (Epac1; 2 μM compound): 2.1e-05 s⁻¹ | kobs (Epac1; 3 μM compound): 2.6e-05 s⁻¹ | kobs (Epac1; 4 μM compound): 3e-05 s⁻¹ | kobs (Epac1; 5 μM compound): 3.3e-05 s⁻¹ | kobs (Epac1; 6 μM compound): 3.8e-05 s⁻¹ | kobs (Epac1; 7 μM compound): 4.1e-05 s⁻¹ | kobs (Epac1; 10 μM compound): 5.6e-05 s⁻¹ | kobs (Epac1; 20 μM compound): 9.4e-05 s⁻¹ | kobs (Epac1; 30 μM compound): 0.000115 s⁻¹ | kobs (Epac1; 40 μM compound): 0.000131 s⁻¹ | kobs (Epac1; 50 μM compound): 0.000148 s⁻¹ | kobs (Epac1; 60 μM compound): 0.000156 s⁻¹ | kobs (Epac1; 70 μM compound): 0.000164 s⁻¹ | kobs (Epac1; 80 μM compound): 0.00017 s⁻¹ | kobs (Epac1; 100 μM compound): 0.000198 s⁻¹ | kobs (Epac1; 200 μM compound): 0.000232 s⁻¹ | kobs (Epac1; 400 μM compound): 0.000232 s⁻¹ | kobs (Epac1; 600 μM compound): 0.000218 s⁻¹ | kobs (Epac1; 800 μM compound): 0.000186 s⁻¹ | A (PKA activity) (PKA-Iα; concentration 1 μM): 2.9904 U/mg | A (PKA activity) (PKA-Iα; concentration 1.00E+01 μM): 1.9936 U/mg | A (PKA activity) (PKA-Iα; concentration 1.00E-01 μM): 3.8864 U/mg | A (PKA activity) (PKA-Iα; concentration 1.00E-02 μM): 2.632 U/mg | A (PKA activity) (PKA-Iα; concentration 1.00E-03 μM): 3.2928 U/mg | A (PKA activity) (PKA-Iα; concentration 1.00E-05 μM): 2.7664 U/mg | A (PKA activity) (PKA-Iα; concentration 5.00E+02 μM): 2.9232 U/mg | A (PKA activity) (PKA-Iβ; concentration 1.00E+01 μM): 2.81 U/mg | A (PKA activity) (PKA-Iβ; concentration 1.00E-01 μM): 5.21 U/mg | A (PKA activity) (PKA-Iβ; concentration 1.00E-03 μM): 4.71 U/mg | A (PKA activity) (PKA-Iβ; concentration 1.00E-05 μM): 4.53 U/mg | A (PKA activity) (PKA-Iβ; concentration 2.50E+02 μM): 3.19 U/mg | A (PKA activity) (PKA-IIα; concentration 1 μM): 8.2345 U/mg | A (PKA activity) (PKA-IIα; concentration 5 μM): 1.10E+01 U/mg | A (PKA activity) (PKA-IIα; concentration 1.00E+01 μM): 1.22E+01 U/mg | A (PKA activity) (PKA-IIα; concentration 1.00E+03 μM): 2.30E+01 U/mg | A (PKA activity) (PKA-IIα; concentration 1.00E-01 μM): 5.026 U/mg | A (PKA activity) (PKA-IIα; concentration 1.00E-02 μM): 4.542 U/mg | A (PKA activity) (PKA-IIα; concentration 1.00E-04 μM): 5.243 U/mg | A (PKA activity) (PKA-IIα; concentration 1.00E-05 μM): 3.782 U/mg | A (PKA activity) (PKA-IIα; concentration 2.50E+02 μM): 1.76E+01 U/mg | A (PKA activity) (PKA-IIα; concentration 5.00E+01 μM): 1.58E+01 U/mg | A (PKA activity) (PKA-IIα; concentration 5.00E+02 μM): 2.11E+01 U/mg | A (PKA activity) (PKA-IIβ; concentration 1 μM): 2.854 U/mg | A (PKA activity) (PKA-IIβ; concentration 1.00E+01 μM): 3.182 U/mg | A (PKA activity) (PKA-IIβ; concentration 1.00E-01 μM): 1.472 U/mg | A (PKA activity) (PKA-IIβ; concentration 1.00E-02 μM): 1.965 U/mg | A (PKA activity) (PKA-IIβ; concentration 1.00E-03 μM): 1.941 U/mg | A (PKA activity) (PKA-IIβ; concentration 1.00E-05 μM): 2.019 U/mg | A (PKA activity) (PKA-IIβ; concentration 5.00E+01 μM): 6.801 U/mg | A (PKA activity) (PKA-IIβ; concentration 5.00E+02 μM): 9.038 U/mg

Nc1ncnc2c1ncn2[C@@H]1O[C@@H]2COP(=O)(O)O[C@H]2[C@H]1O [cAMP, reference compound]
kobs (Epac1; 0.01 μM compound): 1.1e-05 s⁻¹ | kobs (Epac1; 0.05 μM compound): 1.4e-05 s⁻¹ | kobs (Epac1; 0.08 μM compound): 2.5e-05 s⁻¹ | kobs (Epac1; 0.1 μM compound): 2.8e-05 s⁻¹ | kobs (Epac1; 0.3 μM compound): 3e-05 s⁻¹ | kobs (Epac1; 0.5 μM compound): 3.8e-05 s⁻¹ | kobs (Epac1; 0.8 μM compound): 4.7e-05 s⁻¹ | kobs (Epac1; 1 μM compound): 5e-05 s⁻¹ | kobs (Epac1; 2 μM compound): 6.1e-05 s⁻¹ | kobs (Epac1; 3 μM compound): 9.3e-05 s⁻¹ | kobs (Epac1; 4 μM compound): 0.000116 s⁻¹ | kobs (Epac1; 5 μM compound): 0.000161 s⁻¹ | kobs (Epac1; 6 μM compound): 0.000161 s⁻¹ | kobs (Epac1; 7 μM compound): 0.000189 s⁻¹ | kobs (Epac1; 8 μM compound): 0.00021 s⁻¹ | kobs (Epac1; 10 μM compound): 0.000256 s⁻¹ | kobs (Epac1; 20 μM compound): 0.000421 s⁻¹ | kobs (Epac1; 30 μM compound): 0.000589 s⁻¹ | kobs (Epac1; 40 μM compound): 0.000692 s⁻¹ | kobs (Epac1; 50 μM compound): 0.000746 s⁻¹ | kobs (Epac1; 60 μM compound): 0.000796 s⁻¹ | kobs (Epac1; 70 μM compound): 0.000848 s⁻¹ | kobs (Epac1; 80 μM compound): 0.000859 s⁻¹ | kobs (Epac1; 100 μM compound): 0.000937 s⁻¹ | kobs (Epac1; 200 μM compound): 0.00112 s⁻¹ | kobs (Epac1; 400 μM compound): 0.0012 s⁻¹ | kobs (Epac1; 600 μM compound): 0.00116 s⁻¹ | kobs (Epac1; 800 μM compound): 0.00118 s⁻¹ | share of cAMP bound protein still in an inactive conformation (Epac1; Epac1, assuming the most efficient activators shift the equilibrium fully): about 65% | A (PKA activity) (PKA-Iα; concentration 1 μM): 2.37E+01 U/mg | A (PKA activity) (PKA-Iα; concentration 1.00E+01 μM): 2.34E+01 U/mg | A (PKA activity) (PKA-Iα; concentration 1.00E+02 μM): 2.51E+01 U/mg | A (PKA activity) (PKA-Iα; concentration 1.00E-01 μM): 1.43E+01 U/mg | A (PKA activity) (PKA-Iα; concentration 1.00E-02 μM): 4.4268 U/mg | A (PKA activity) (PKA-Iα; concentration 1.00E-03 μM): 1.4399 U/mg | A (PKA activity) (PKA-Iα; concentration 1.00E-05 μM): 2.9393 U/mg | A (PKA activity) (PKA-Iα; concentration 2.50E-01 μM): 1.93E+01 U/mg | A (PKA activity) (PKA-Iα; concentration 2.50E-02 μM): 7.9492 U/mg | A (PKA activity) (PKA-Iα; concentration 5.00E-02 μM): 9.6152 U/mg | A (PKA activity) (PKA-Iβ; concentration 1 μM): 2.35E+01 U/mg | A (PKA activity) (PKA-Iβ; concentration 1.00E+01 μM): 2.37E+01 U/mg | A (PKA activity) (PKA-Iβ; concentration 1.00E+02 μM): 2.44E+01 U/mg | A (PKA activity) (PKA-Iβ; concentration 1.00E-01 μM): 2.23E+01 U/mg | A (PKA activity) (PKA-Iβ; concentration 1.00E-02 μM): 7.2375 U/mg | A (PKA activity) (PKA-Iβ; concentration 1.00E-03 μM): 2.9 U/mg | A (PKA activity) (PKA-Iβ; concentration 1.00E-05 μM): 4.525 U/mg | A (PKA activity) (PKA-Iβ; concentration 2.50E-02 μM): 1.08E+01 U/mg | A (PKA activity) (PKA-Iβ; concentration 5.00E-02 μM): 1.54E+01 U/mg | EC50 (PKA-IIα; PKA-IIα, read-out: Kact): 80 nM | A (PKA activity) (PKA-IIα; concentration 1 μM): 2.29E+01 U/mg | A (PKA activity) (PKA-IIα; concentration 1.00E+01 μM): 2.43E+01 U/mg | A (PKA activity) (PKA-IIα; concentration 1.00E+02 μM): 2.52E+01 U/mg | A (PKA activity) (PKA-IIα; concentration 1.00E-01 μM): 1.58E+01 U/mg | A (PKA activity) (PKA-IIα; concentration 1.00E-02 μM): 7.553 U/mg | A (PKA activity) (PKA-IIα; concentration 1.00E-03 μM): 5.677 U/mg | A (PKA activity) (PKA-IIα; concentration 1.00E-04 μM): 5.697 U/mg | A (PKA activity) (PKA-IIα; concentration 1.00E-05 μM): 3.782 U/mg | A (PKA activity) (PKA-IIα; concentration 2.50E+02 μM): 2.55E+01 U/mg | A (PKA activity) (PKA-IIα; concentration 2.50E-01 μM): 1.90E+01 U/mg | A (PKA activity) (PKA-IIα; concentration 2.50E-02 μM): 1.02E+01 U/mg | A (PKA activity) (PKA-IIβ; concentration 1 μM): 2.14E+01 U/mg | A (PKA activity) (PKA-IIβ; concentration 1.00E+01 μM): 2.50E+01 U/mg | A (PKA activity) (PKA-IIβ; concentration 1.00E+02 μM): 2.46E+01 U/mg | A (PKA activity) (PKA-IIβ; concentration 1.00E-01 μM): 1.13E+01 U/mg | A (PKA activity) (PKA-IIβ; concentration 1.00E-02 μM): 4.087 U/mg | A (PKA activity) (PKA-IIβ; concentration 1.00E-03 μM): 4.309 U/mg | A (PKA activity) (PKA-IIβ; concentration 1.00E-04 μM): 4.252 U/mg | A (PKA activity) (PKA-IIβ; concentration 1.00E-05 μM): 2.8563 U/mg | A (PKA activity) (PKA-IIβ; concentration 2.50E-01 μM): 1.57E+01 U/mg | A (PKA activity) (PKA-IIβ; concentration 2.50E-02 μM): 5.477 U/mg | A (PKA activity) (PKA-IIβ; concentration 5.00E-01 μM): 1.81E+01 U/mg | A (PKA activity) (PKA-IIβ; concentration 5.00E-02 μM): 9.071 U/mg
